Results on four compounds are retold here after US20030004355A1, “Fused pyrazolyl compounds” (priority 2001, published 2003).

Test [1] relates to platelets. In words: Inhibition of platelet aggregation (turbidimetric, washed platelets). It is filed as cell-based. Particulars: washed rabbit platelets, AA; for inhibitory effect on platelet aggregation induced by different inducers: inducers thrombin, collagen, PAF, read 5 minutes after the inducer. The method, then:
In vitro assays can be used to evaluate the efficacy of a fused pyrazolyl compound of this invention in inhibiting platelet aggregation; which is attributable to low intracellular cGMP levels. For example, the compound is incubated in a platelet suspension containing a platelet aggregation factor, and the degree of aggregation is measured turbidimetrically with a dual-channel lumiaggregometer and converted into a percentage value by the method described in Teng et al., Biochem. Biophys Acta. 1987, 924:375-382.
EDTA was added to blood collected from the marginal ear vein of a rabbit to reach a final EDTA concentration of 6 mM. The EDTA-containing blood was then centrifuged at 90×g for 10 minutes at the room temperature. The supernatant, a platelet-rich plasma, was further centrifuged at 500×g for 10 minutes. The platelet pellets thus obtained were washed with a solution containing EDTA (2 mM) and serum albumin (3.5 mg/mL), and then centrifuged again at 500×g for 10 minutes. The pellets were then washed with an EDTA-free Tyrode's solution of the following composition (mM): NaCl (136.8), KCl (2.8), NaHCO3 (11.9), MgCl2 (1.1), NaH2PO4 (0.33), CaCl2 (1.0), and glucose (11.2). After centrifugation under the same conditions, the platelet pellets were suspended in the EDTA-free Tyrode's solution described above. The platelet number was counted by a Coulter Counter (Model ZM) and adjusted to 4.5×10^8 platelets/mL.
A compound to be tested was added to 4 platelet suspensions, which were then incubated at 37° C. for 3 minutes under a stirring condition (900 rpm). One minute after the stirring, four aggregation inducers, i.e., thrombin, collagen, arachidonic acid (AA), and platelet aggregation factor (PAF), were respectively added into the 4 suspensions, causing the platelets to aggregate. Platelet aggregation in each suspension was measured with a dual-channel lumiaggregometer (Model 1020, Payton, Canada) by the turbidimetric method described in Born et al., J. Physiol. 1963, 168:178-195. The percentage values of the platelet aggregation, determined 5 minutes after the addition of each aggregation inducer, were calculated by the method described in Teng et al., Biochem. Biophys Acta. 1987, 924:375-382.

Test [2] has as its system sGC. In words: Activation of sGC (conversion of [α-32P]GTP to cGMP by platelet lysate supernatant). Format: biochemical. Particulars: 100 μM compound; washed rabbit platelet supernatant; 30° C., 10 minutes. The method, then:
The efficacy of a compound in activating sGC can be evaluated in vitro by the following assay. Washed platelets are suspended in a buffer and disrupted by sonication. The lysate is then centrifuged to obtain a supernatant which is used as the source of sGC. An aliquot of the supernatant and the compound to be tested are added into a buffer containing GTP, a substrate for sGC. The activity of sGC can be determined by the method described in Gerzer et al., J. Pharmacol. Exp. Ther. 1983, 226:180.
Washed rabbit platelets were prepared by the method described in Teng et al., Thromb. Haemost. 1988, 59:304. They were then suspended in 50 mM pH 7.4 Tris-HCl buffer and subsequently disrupted by sonication. The lysate thus obtained was centrifuged at 39,000×g at 4° C. for 20 minutes, and the supernatant was used as the source of sGC. Two 50 μL aliquots of the supernatant were respectively added to two 150 μL pH 7.4 Tris-HCl (50 mM) buffer solutions, each containing GTP (0.2 mM, containing 1×10^6 cpm [α-^32P]GTP), MgCl2 (5 mM), cGMP (2.5 mM), creatine phosphate (15 mM), and creatine phosphokinase (30 μg). One of the two solutions also contained 100 μM compound 3. After incubation at 30° C. for 10 minutes, conversion of GTP to cGMP by sGC was terminated with HCl (200 μL, 0.5 N). […] Radioactivity ([^32P]cGTP) was measured in a liquid scintillation counter to determine the amount of […].

For test [3], the system named is PDEs. In words: Inhibition of PDE (conversion of [3H]cGMP by platelet lysate supernatant). Format: biochemical. To be noted: 10 μM compound; washed human platelet supernatant; 10 μM cGMP; 37° C., 30 minutes. The method, then:
The efficacy of a compound in inhibiting PDEs can be evaluated in vitro by the following assay. Washed platelets are suspended in a Tris-HCl buffer and disrupted by sonication. The lysate is centrifuged to obtain a supernatant which contains PDEs. An aliquot of the supernatant is taken to prepare a PDE-containing solution. The compound to be tested and cGMP (a substrate for PDE) are added to the solution. Ophiophagus hannah snake venom is subsequently added to remove the phosphate in 5′-GMP (converted from cGMP by PDEs) to form uncharged guanosine. An ion-exchange resin is used to remove the remaining cGMP. The cGMP-free solution is then centrifuged, and an aliquot of the supernatant is taken for quantification of the uncharged guanosine in a liquid scintillation counter. Activity of PDEs is evaluated based on the amount of the uncharged guanosine.
Washed human platelets were prepared by the method described in Teng et al., Biochem. Biophys. Acta. 1989, 990:315-320. They were then suspended in 50 mM pH 7.4 Tris-HCl buffer (containing 5 mM MgCl2) and subsequently disrupted by sonication at 4° C. […] Each cGMP-free solution thus obtained was then centrifuged, and an aliquot (0.5 mL) of the supernatant was taken for quantification of uncharged guanosine in a liquid scintillation counter.

Turning to `COC(=O)c1ccc(-c2nn(Cc3ccccc3)c3cc4c(cc23)OCO4)o1` [Compound 1, 1-benzyl-3-(5′-methoxycarbonyl-2′-furyl)-5,6-methylenedioxoindazole], the “inhibitory effect on platelet aggregation induced by different inducers” value (“inhibitory effect … by different inducers” for short) in test [1] is given as “showed inhibitory effect on platelet aggregation”.
Still for that read-out and setting: to `O=C(O)c1ccc(-c2nn(Cc3ccccc3)c3cc4c(cc23)OCO4)o1` [Compound 2, 1-benzyl-3-(5′-hydroxycarbonyl-2′-furyl)-5,6-methylenedioxoindazole] belongs “showed inhibitory effect on platelet aggregation”.
For `OCc1ccc(-c2nn(Cc3ccccc3)c3cc4c(cc23)OCO4)o1` [Compound 3, 1-benzyl-3-(5′-hydroxymethyl-2′-furyl)-5,6-methylenedioxoindazole], in test [2], the “activation of sGC” value is recorded as “effective activator of sGC”. In addition, in test [3], the “inhibition of PDEs” value is listed as “potent inhibitor of PDEs”. Besides, the “relative effectiveness in inhibiting platelet aggregation among compounds 1-4” value in test [1] (aggregation induced by thrombin, collagen, and PAF) is “the most effective”. Further, the “inhibitory effect … by different inducers” value in test [1] is on record as “showed inhibitory effect on platelet aggregation”.
On to `COCc1ccc(-c2nn(Cc3ccccc3)c3cc4c(cc23)OCO4)o1` [Compound 4, 1-benzyl-3-(5′-methoxymethyl-2′-furyl)-5,6-methylenedioxoindazole], for which, in test [1], the “inhibitory effect … by different inducers” value is “showed inhibitory effect on platelet aggregation”.
